US7012098B2, “Inhibitors of inducible nitric oxide synthase for chemoprevention and treatment of cancers” (Pharmacia Corporation, priority 2001, dated 2006)
Structures can show the parent of a compound that is named as a salt. Where two headings read alike, the source gives them in different places.

Experiments:
in vivo = conditions: male, F344, rat, plasma, oral
AOM-induced colonic ACF = assay: Chemopreventive effects in rats with azoxymethane-induced aberrant crypt foci; type: in vivo, male F344 rats; conditions: for Foci containing 1 Crypt / Foci containing 2 Crypt / Foci containing 3 Crypt / Foci containing ≧4 Crypts / Total ACF incidence: AOM-treated male F344 rats, Mean ± SEM
Source text: In Vivo Assay of Chemopreventive Effects of Therapeutic Compounds in Rats with Azoxymethane-induced Aberrant Crypt Foci
Azoxymethane (AOM) (CAS:25843-45-2) was purchased from Ash Stevens (Detroit, Mich.). iNOS and COX-2 selective inhibitors were provided by Pharmacia, (St. Louis, […].). Sulindac, a non-selective inhibitor of COX-isoforms and a known inhibitor of colon carcinogenesis, was supplied by the Chemoprevention Branch of the National Cancer Institute (Bethesda, Md.). Weanling male F344 rats were purchased from Charles River Breeding Laboratories (Kingston, N.Y.). All ingredients of the semipurified diet were obtained from Dyets Inc., (Bethlehem, Pa.) and were stored at 4° C. until the experimental diets were prepared. The rats were held in quarantine for 1 week and had access to modified AIN-76A semipurified control diet (Reddy et al., Cancer Res. 50: 2562-2568, 1990, which is herein incorporated by reference.). They were randomly distributed into various dietary groups and were transferred to an animal holding room where they were housed, three rats to a plastic cage, under controlled conditions of a 12-h light/12-h dark cycle, 50% relative humidity and 21° C. room temperature. Experimental diets were prepared by mixing chemopreventive agents with modified AIN-76A control diet.
To quantify aberrant crypt foci, after a minimum of 24 h in buffered formalin, the colons were cut into 2-cm segments starting at the anus; for the next 5-10 min they were placed in a Petri dish containing 0.2% methylene blue in Krebs Ringer solution. They were then placed, mucosal side up, on a microscope slide and observed through a light microscope. Aberrant crypt foci were recorded according to standard procedures that are being used routinely in our laboratory (Rao et al., Carcinogenesis 21: 617-21, 2000; Rao et al., Cancer Res. 53:4182-88, 1993, which are herein incorporated by reference.). […] The parameters used to assess the aberrant crypts were their occurrence and multiplicity. Crypt multiplicity was determined as the number of crypts in each focus and categorized as containing up to 3, or 4 or more aberrant crypts/focus.

iNOS = iNOS (Rattus norvegicus, UniProt Q06518); assay: Colonic mucosal iNOS activity after dietary treatment; type: in vivo, male F344 rats
Experimental: (§1) In Vivo Assay of Modulation of Colonic Mucosal Activities of NOS and COX isoforms by iNOS and COX-2 Inhibitors
(§2) NOS and iNOS activities were determined in colonic samples as prepared and described above. Conversion of L-arginine to L-citrulline was measured by a modification of an earlier described method (Rao et al, Carcinogenesis 21, supra; Ambs et al., Cancer Res. 58:334-41, 1998, which is herein incorporated by reference). The assay was carried out by adding 100 μg sample protein to 150 μl of assay buffer [50 mM HEPES, 1 mM DTT, 1 mM MgCl2, 5 mg/L pepstatin A, 0.1 mM PMSF, and 3 mg/L aprotinin, pH 7.4] containing 70 μM arginine, 250,000 dpm L-[^3H]-arginine, 2 mM NADPH, 5μM tetrahydro biopterin, 5 μM flavin adenine dinucleotide, and 0.5 mM CaCi2 to measure total NOS activity, or 1 mM EGTA (without calcium) to determine Ca+^2-independent iNOS activity. After 30 min at 37° C., the reaction was stopped with 100 μl of 1M trichloroacetic acid. Then the samples were adjusted to pH 4.6 by adding 500 μl of 20 mM HEPES and loaded on to Dowex AG 50W-X8 resin columns. L-[^3H]-citrulline was eluted and separated on TLC. Radioactivity was counted by a BioScan Radiomatic detector. Results are expressed as pmol L-[^3H]-citrulline released/mg protein/min.

NOS = assay: Colonic mucosal NOS activity after dietary treatment; type: in vivo, male F344 rats; conditions: 100 ppm in diet; AOM-treated rats, colonic mucosa; Mean ± SEM
Experimental: as §1, §2
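Throughout, for Plasma level of compound XI: plasma drug concentrations quantified by liquid chromatography with tandem mass spectrometry following solid phase extraction, reported as mean ± SEM.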
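Throughout, for Plasma level: plasma drug concentrations quantified by liquid chromatography with tandem mass spectrometry following solid phase extraction, reported as mean ± SEM.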
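Throughout, for absorption: plasma drug concentrations quantified by liquid chromatography with tandem mass spectrometry following solid phase extraction, reported as mean ± SEM.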

Q: Which concentration at 1 week on diet (in vivo; 10 ppm in diet) does the source give for `CC(=N)NCCCC[C@H](N)C(=O)Nc1nnn[nH]1` [compound XI, 2S-amino-6-[(1-iminoethyl)amino]-N-(1H-tetrazol-5-yl)hexanamide, hydrate, dihydrochloride] here?
A: 461 ng/mL

Q: What about the concentration at 5 weeks on diet (in vivo; 10 ppm in diet) of the same compound?
A: 341 ng/mL

Q: And the concentration at 9 weeks on diet (in vivo; 10 ppm in diet)?
A: 254 ng/mL

Q: What about the concentration at 1 week on diet (in vivo; 20 ppm in diet) of the same compound?
A: 1320 ± 71 ng/mL

Q: And the concentration at 5 weeks on diet (in vivo; 20 ppm in diet)?
A: 821 ± 32 ng/mL

Q: What about the concentration at 9 weeks on diet (in vivo; 20 ppm in diet) of the same compound?
A: 742 ± 7 ng/mL

Q: And the concentration at 1 week on diet (in vivo; 100 ppm in diet)?
A: 4310 ng/mL

Q: And the concentration at 5 weeks on diet (in vivo; 100 ppm in diet)?
A: 2810 ng/mL

Q: What about the concentration at 9 weeks on diet (in vivo; 100 ppm in diet) of the same compound?
A: 2640 ng/mL

Q: What about the “Foci containing 1 Crypt” value (AOM-induced colonic ACF; 10 ppm in diet) of the same compound?
A: 28.2 ± 1.8

Q: What about the “Foci containing 2 Crypt” value (AOM-induced colonic ACF; 10 ppm in diet) of the same compound?
A: 31.7 ± 2.7

Q: And the “Foci containing 3 Crypt” value (AOM-induced colonic ACF; 10 ppm in diet)?
A: 29.3 ± 2.3

Q: What about the “Foci containing ≧4 Crypts” value (AOM-induced colonic ACF; 10 ppm in diet) of the same compound?
A: 25.6 ± 1.8

Q: What about the “Total ACF incidence” value (AOM-induced colonic ACF; 10 ppm in diet) of the same compound?
A: 115 ± 4.8

Q: And the “Foci containing 1 Crypt” value (AOM-induced colonic ACF; 30 ppm in diet)?
A: 28.7 ± 2.9

Q: And the “Foci containing 2 Crypt” value (AOM-induced colonic ACF; 30 ppm in diet)?
A: 32.6 ± 1.8

Q: What about the “Foci containing 3 Crypt” value (AOM-induced colonic ACF; 30 ppm in diet) of the same compound?
A: 24.8 ± 1.7

Q: And the “Foci containing ≧4 Crypts” value (AOM-induced colonic ACF; 30 ppm in diet)?
A: 22 ± 2.7

Q: What about the “Total ACF incidence” value (AOM-induced colonic ACF; 30 ppm in diet) of the same compound?
A: 108 ± 5.5

Q: What about the “Foci containing 1 Crypt” value (AOM-induced colonic ACF; 100 ppm in diet) of the same compound?
A: 28.6 ± 2.2

Q: What about the “Foci containing 2 Crypt” value (AOM-induced colonic ACF; 100 ppm in diet) of the same compound?
A: 33.6 ± 2.1

Q: And the “Foci containing 3 Crypt” value (AOM-induced colonic ACF; 100 ppm in diet)?
A: 17.7 ± 1.1

Q: And the “Foci containing ≧4 Crypts” value (AOM-induced colonic ACF; 100 ppm in diet)?
A: 13.9 ± 1.1

Q: What about the “Total ACF incidence” value (AOM-induced colonic ACF; 100 ppm in diet) of the same compound?
A: 93.8 ± 4.2

Q: What about the “effect on AOM-induced total colonic ACF and multicrypt clusters of 4 or more crypts” value (AOM-induced colonic ACF; 100 ppm, compared to control diet) of the same compound?
A: suppressed

Q: What about the absorption (3 dose levels (10, 30, 100 ppm in diet)) of the same compound?
A: Dose-dependant

Q: What about the Plasma level (10 ppm in diet, Early, One week on diet, Mean ± SEM, hydrate, dihydrochloride) of the same compound?
A: 461 ± 15 ηg/mI

Q: And the Plasma level (10 ppm in diet, Late, 9 weeks on diet, Mean ± SEM, hydrate, dihydrochloride)?
A: 254 ± 13 ηg/mI

Q: And the Plasma level (10 ppm in diet, Mid, 5 weeks on diet, Mean ± SEM, hydrate, dihydrochloride)?
A: 341 ± 9.7 ηg/mI

Q: What about the “Plasma level of compound XI” value (30 ppm compound XI + 500 ppm Celecoxib in diet, Early, One week on diet) of the same compound?
A: 1240 ± 37 + ηg/mI

Q: What about the “Plasma level of compound XI” value (30 ppm compound XI + 500 ppm Celecoxib in diet, Late, 9 weeks on diet) of the same compound?
A: 788 ± 63 ηg/mI

Q: And the “Plasma level of compound XI” value (30 ppm compound XI + 500 ppm Celecoxib in diet, Mid, 5 weeks on diet)?
A: 901 ± 5.0 + ηg/mI

Q: And the Plasma level (30 ppm in diet, first of 3 time points)?
A: 1315 ηg/ml

Q: And the Plasma level (30 ppm in diet, second of 3 time points)?
A: 821 ηg/ml

Q: What about the Plasma level (30 ppm in diet, third of 3 time points) of the same compound?
A: 742 ηg/ml

Q: And the “Plasma level of compound XI” value (100 ppm compound XI + 500 ppm Celecoxib in diet, Early, One week on diet)?
A: 4370 ± 112 + ηg/mI

Q: What about the “Plasma level of compound XI” value (100 ppm compound XI + 500 ppm Celecoxib in diet, Late, 9 weeks on diet) of the same compound?
A: 2477 ± 204 + ηg/mI

Q: What about the “Plasma level of compound XI” value (100 ppm compound XI + 500 ppm Celecoxib in diet, Mid, 5 weeks on diet) of the same compound?
A: 3096 ± 344 + ηg/mI

Q: What about the Plasma level (100 ppm in diet, Early, One week on diet, Mean ± SEM, hydrate, dihydrochloride) of the same compound?
A: 4306 ± 146 ηg/mI

Q: And the Plasma level (100 ppm in diet, Late, 9 weeks on diet, Mean ± SEM, hydrate, dihydrochloride)?
A: 2639 ± 268 ηg/mI

Q: And the Plasma level (100 ppm in diet, Mid, 5 weeks on diet, Mean ± SEM, hydrate, dihydrochloride)?
A: 2811 ± 82 ηg/mI

Q: What about the “suppression of AOM-induced colonic mucosal iNOS activity” value (iNOS; 100 ppm) of the same compound?
A: ~37%

Q: And the “NOS Activity, iNOS” value (iNOS; 100 ppm in diet, AOM-treated rats, colonic mucosa, Mean ± SEM)?
A: 1.6 ± 0.2 pmoles [^3H]-citrulline/mg pro

Q: And the “NOS Activity, NOS” value (NOS)?
A: 9.8 ± 1.5 pmoles [^3H]-citrulline/mg pro
